Measurements from US8603546B2, “Herbal supplement for increased muscle strength and endurance for athletes” (priority 1999, dated 2013).

Columns and labels:
athletes [1] = assay: Strength group: maximum weight lifted in 6 basic exercises by athletes taking galanthamine; type: in vivo, human
Text: (§1) 30 healthy individuals, both male and female, ages 18-28, are separated into 2 groups, 15 persons each, to observe the changes in their strength and endurance after administration of galanthamine and regular physical training. All subjects are athletes who have exercised regularly in the gym for 1 to 3 years. During the 3 week test period, all subjects train about 4 times a week with a special exercise program for the first week as described below, supplemented with the subjects' own preferred training schedule. Strength and endurance are observed through 6 basic exercises involving the major muscle groups as follows:
10 participants in each group take galanthamine, the other 5 take a placebo. The dosage of galanthamine is 7.5 mg daily taken with a meal 1.5-2 hours before the workout on training days and 5 mg daily on non-training days divided into two equal portions taken in the morning and in the afternoon. 2. The Strength Group. • a. The initial level. Before administration of galanthamine the initial strength level of each subject is determined and is defined as the maximum weight a subject is able to lift in all 6 exercises. • b. The training schedule. The subjects use a split training method, that is they alternate on one day training their chest, back and shoulder muscles (performing exercises #1, 2 and 3, respectively) and the next day train their biceps, triceps and legs (exercises #4, 5 and 6, respectively). The subjects do 5-6 sets in each exercise using a pyramidal principle for increasing their strength, i.e. they start every exercise doing 10-15 repetitions using a middle weight, then increase the weight gradually, being able to do fewer repetitions, until the maximum weight they are able to lift for one repetition with difficulty is reached. 2 sets are then performed using the same or 5-10% less weight. This maximum weight is considered the “record for the day”, and is compared to the initial level. • c. The results. An increase in strength is observed almost immediately after administration of galanthamine. […]

athletes [2] = assay: Endurance group: maximum repetitions in 6 basic exercises by athletes taking galanthamine; type: in vivo, human; details: vs initial level
Text: as §1
10 participants in each group take galanthamine, the other 5 take a placebo. The dosage of galanthamine is 7.5 mg daily taken with a meal 1.5-2 hours before the workout on training days and 5 mg daily on non-training days divided into two equal portions taken in the morning and in the afternoon. 2. The Strength Group. • a. The initial level. Before administration of galanthamine the initial strength level of each subject is determined and is defined as the maximum weight a subject is able to lift in all 6 exercises. • b. The training schedule. […]

COc1ccc2c3c1O[C@H]1C[C@@H](O)C=C[C@@]31CCN(C)C2 [galanthamine]
average increase in strength (athletes [1]; after 1 week, 7.5 mg daily on training days, 5 mg daily on non-training days, vs initial level): 4-7%
total increase in strength (athletes [1]; by the third week, 7.5 mg daily on training days, 5 mg daily on non-training days, vs initial level): 10-13%
increase in strength reported by athletes (athletes [1]; continued galanthamine for up to 3 months, during the entire period): over 20%
average endurance increase (athletes [2]; after the first week, 7.5 mg daily on training days, 5 mg daily on non-training days): 11%
average endurance increase (athletes [2]; end of the trial, after 3 weeks of treatment): 24%
